Source: US10759783B2, “Biaryl inhibitors of Bruton'S tyrosine kinase” (BIOGEN MA INC., priority 2013, dated 2020)

Legend:
[1] = target: BTK (phospho-BTK) in human whole blood (Homo sapiens, UniProt Q06187); test: In vitro PD assay in human whole blood (pBTK assay)
BTK enzyme = target: T1, BTK enzyme (Homo sapiens, UniProt Q06187); test: In vitro BTK kinase assay: BTK-POLYGAT-LS assay; format: biochemical; details: ATP 10 μM, read-out: IC50 (10uMATP)
T1 construct: purchased Upstate 14-552
In short: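 Human BTK activity was measured with final 10 μM ATP and 100 nM polyGAT substrate in pH 7.5 Tris buffer with 10 mM MgCl2, DTT, Triton X-100 and casein.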

Sequence of BTK (phospho-BTK) in human whole blood (Q06187 whole entry): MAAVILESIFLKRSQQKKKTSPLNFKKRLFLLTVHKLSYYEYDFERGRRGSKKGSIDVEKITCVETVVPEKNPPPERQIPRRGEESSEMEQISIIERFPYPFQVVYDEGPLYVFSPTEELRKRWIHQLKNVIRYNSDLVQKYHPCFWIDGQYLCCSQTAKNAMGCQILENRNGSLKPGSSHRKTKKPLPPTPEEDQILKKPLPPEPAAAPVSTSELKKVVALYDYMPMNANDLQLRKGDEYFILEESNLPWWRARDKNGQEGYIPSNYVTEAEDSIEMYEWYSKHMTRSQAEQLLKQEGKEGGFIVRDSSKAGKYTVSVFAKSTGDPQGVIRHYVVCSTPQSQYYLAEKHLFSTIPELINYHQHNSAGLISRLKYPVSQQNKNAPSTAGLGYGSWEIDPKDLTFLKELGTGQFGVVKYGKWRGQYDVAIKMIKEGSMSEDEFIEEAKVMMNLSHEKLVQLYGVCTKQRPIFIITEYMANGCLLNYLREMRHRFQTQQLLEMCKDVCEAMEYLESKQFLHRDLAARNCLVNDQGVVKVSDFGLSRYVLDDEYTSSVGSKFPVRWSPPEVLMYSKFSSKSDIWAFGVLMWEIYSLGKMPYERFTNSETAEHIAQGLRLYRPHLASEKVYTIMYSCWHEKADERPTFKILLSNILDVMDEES
T1 sequence (Q06187 whole entry): as above

SMILES | IC50 [1] [nM] | IC50 (BTK enzyme) [nM]
Cn1cc(Nc2nccc(-c3ccc(CNC(=O)N4CCC(C(C)(C)C)C4)c(C#N)c3)n2)cn1 (stereo not drawn) [Example I-210, 3-(tert-butyl)-N-(2-cyano-4-(2-((1-methyl-1H-pyrazol-4-yl)amino)pyrimidin-4-yl)benzyl)pyrrolidine-1-carboxamide] | < 500 | < 10
CC(C)(C)C1CCN(C(=O)NCc2ccc(-c3ccnc(Nc4cnn(CCO)c4)n3)cc2C(F)(F)F)C1 (stereo not drawn) [Example I-209, 3-(tert-butyl)-N-(4-(2-((1-(2-hydroxyethyl)-1H-pyrazol-4-yl)amino)pyrimidin-4-yl)-2-(trifluoromethyl)benzyl)pyrrolidine-1-carboxamide] | < 500 | < 10
Cc1cc(-c2ccnc(Nc3cnn([C@H]4CC[C@H](C(=O)O)CC4)c3)n2)ccc1CNC(=O)c1cnc(C(C)(C)C)s1 [Example I-49, trans-4-(4-((4-(4-((2-(tert-butyl)thiazole-5-carboxamido)methyl)-3-methylphenyl)pyrimidin-2-yl)amino)-1H-pyrazol-1-yl)cyclohexanecarboxylic acid] | < 500 | < 10
CCn1cc(Nc2nccc(-c3ccc(CNC(=O)N4CC(OC(C)(C)C)C4)c(C(F)(F)F)c3)n2)cn1 [Example I-203, 3-(tert-butoxy)-N-(4-(2-((1-ethyl-1H-pyrazol-4-yl)amino)pyrimidin-4-yl)-2-(trifluoromethyl)benzyl)azetidine-1-carboxamide] | < 500 | < 10
CC(C)(C)OC1CN(C(=O)NC2CCCCc3cc(-c4ccnc(Nc5cnn6c5CCC6)n4)ccc32)C1 (stereo not drawn) [Example I-182, 3-(tert-butoxy)-N-(2-(2-((5,6-dihydro-4H-pyrrolo [1,2-b]pyrazol-3-yl)amino)pyrimidin-4-yl)-6,7,8,9-tetrahydro-5H-benzo[7]annulen-5-yl)azetidine-1-carboxamide] | < 500 | < 10
CCn1cc(Nc2nccc(-c3ccc(CNC(=O)c4cnc(C(C)(C)C)s4)c(C)c3)n2)cn1 [Example I-40, 2-(tert-butyl)-N-(4-(2-((1-ethyl-1H-pyrazol-4-yl)amino)pyrimidin-4-yl)-2-methylbenzyl)thiazole-5-carboxamide] | < 500 | < 10
COCCn1cc(Nc2nccc(-c3ccc(CNC(=O)N4CC(OC(C)C)C4)c(C)c3)n2)cn1 [Example I-213, 3-isopropoxy-N-(4-(2-((1-(2-methoxyethyl)-1H-pyrazol-4-yl)amino)pyrimidin-4-yl)-2-methylbenzyl)azetidine-1-carboxamide] | < 500 | < 10
COCCn1cc(Nc2nccc(-c3ccc(CNC(=O)N4CC(OC(C)(C)C)C4)c(C)c3)n2)cn1 [Example I-304, 3-tert-butoxy-N-[[4-[2-[[1-(2-methoxyethyl)pyrazol-4-yl)amino]pyrimidin-4-yl]-2-methyl-phenyl]methyl]azetidine-1-carboxamide] | < 500 | < 10
Cc1cc(-c2ccnc(Nc3cnn(CCN)c3)n2)ccc1CNC(=O)c1cnc(C(C)(C)C)s1 [Example I-50, N-(4-(2-((1-(2-aminoethyl)-1H-pyrazol-4-yl)amino)pyrimidin-4-yl)-2-methylbenzyl)-2-(tert-butyl)thiazole-5-carboxamide] | < 500 | < 10
CC(C)(C)OC1CN(C(=O)NC2CCCCc3cc(-c4ccnc(Nc5cnn(C6CCNCC6)c5)n4)ccc32)C1 (stereo not drawn) [Example I-343, 3-tert-butoxy-N-[2-[2-[[1-(4-piperidyl)pyrazol-4-yl]amino]pyrimidin-4-yl]-6,7,8,9-tetrahydro-5H-benzo[7]annulen-5-yl]azetidine-1-carboxamide] | < 500 | < 10
Cc1cc(-c2ccnc(Nc3cnn(C)c3)n2)ccc1CNC(=O)c1cnc(C(F)(F)F)s1 [Example I-4, N-(2-methyl-4-(2-((1-methyl-1H-pyrazol-4-yl)amino)pyrimidin-4-yl)benzyl)-2-(trifluoromethyl)thiazole-5-carboxamide] | 1500 to 10000 | < 10
Cc1c(Nc2nccc(-c3ccc4c(c3)CCCCC4NC(=O)N3CC(OC(C)(C)C)C3)n2)cnn1C (stereo not drawn) [Example I-347, 3-tert-butoxy-N-[2-[2-[(1,5-dimethylpyrazol-4-yl)amino]pyrimidin-4-yl]-6,7,8,9-tetrahydro-5H-benzo[7]annulen-5-yl]azetidine-1-carboxamide] | < 500 | < 10
Cc1cc(-c2ccnc(Nc3cnn(C)c3C)n2)ccc1CNC(=O)c1cnc(C(C)(C)C)s1 [Example I-52, 2-(tert-butyl)-N-(4-(2-((1,5-dimethyl-1H-pyrazol-4-yl)amino)pyrimidin-4-yl)-2-methylbenzyl)thiazole-5-carboxamide] | < 500 | < 10
Cc1cc(-c2cc(Nc3cnn(C)c3)ncn2)ccc1CNC(=O)c1cnc(C(C)(C)C)s1 [Example I-64, 2-(tert-butyl)-N-(2-methyl-4-(6-((1-methyl-1H-pyrazol-4-yl)amino)pyrimidin-4-yl)benzyl)thiazole-5-carboxamide] | 1500 to 10000 | < 10
Cc1cc(-c2ccnc(Nc3cnn(C)c3)n2)ccc1CNC(=O)c1cc2c(s1)CCNC2 [Example I-2, N-(2-methyl-4-(2-((1-methyl-1H-pyrazol-4-yl)amino)pyrimidin-4-yl)benzyl)-4,5,6,7-tetrahydrothieno[3,2-c]pyridine-2-carboxamide] | 500 to 1500 | < 10

Now from value to compound:

IC50 [1] [nM] | IC50 (BTK enzyme) [nM] | SMILES
< 500 | < 10 | CC(C)OC1CN(C(=O)NC2CCN(CCO)Cc3cc(-c4ccnc(Nc5cnn(C)c5)n4)ccc32)C1 (stereo not drawn) [Example I-346, N-[2-(2-hydroxyethyl)-8-[2-[(1-methylpyrazol-4-yl)amino]pyrimidin-4-yl]-1,3,4,5-tetrahydro-2-benzazepin-5-yl]-3-isopropoxy-azetidine-1-carboxamide]
< 500 | < 10 | Cc1cc(-c2cc(Nc3cc4n(n3)CCN(C)C4C)ncn2)ccc1CNC(=O)c1cnn(C(C)(C)C)c1 (stereo not drawn) [Example I-282, 1-tert-butyl-N-[[4-[6-[(4,5-dimethyl-6,7-dihydro-4H-pyrazolo[1,5-a]pyrazin-2-yl)amino]pyrimidin-4-yl]-2-methyl-phenyl]methyl]pyrazole-4-carboxamide]
< 500 | < 10 | Cc1cc(-c2cc(Nc3ccc(N4CCN(C)CC4)cn3)ncn2)ccc1CNC(=O)c1ccn(C(C)(C)C)n1 [Example I-226, 1-(tert-butyl)-N-(2-methyl-4-(6-((5-(4-methylpiperazin-1-yl)pyridin-2-yl)amino)pyrimidin-4-yl)benzyl)-1H-pyrazole-3-carboxamide]
< 500 | < 10 | COCCc1cc(-c2ccnc(Nc3cnn4c3CCC4)n2)ccc1CNC(=O)N1CC[C@@H](C(C)(C)C)C1 [Example I-325, (3S)-3-tert-butyl-N-[[4-[2-(5,6-dihydro-4H-pyrrolo[1,2-b]pyrazol-3-ylamino)pyrimidin-4-yl]-2-(2-methoxyethyl)phenyl]methyl]pyrrolidine-1-carboxamide]
< 500 | < 10 | Cc1cc(-c2cc(Nc3cc4n(n3)CCCN(CCO)C4)ncn2)ccc1CNC(=O)c1cnc(C(C)(C)C)s1 [Example I-285, 2-tert-butyl-N-[[4-[6-[[5-(2-hydroxyethyl)-4,6,7,8-tetrahydropyrazolo[1,5-a][1,4]diazepin-2-yl]amino]pyrimidin-4-yl]-2-methyl-phenyl]methyl]thiazole-5-carboxamide]
< 500 | < 10 | CN1CC(n2cc(Nc3nccc(-c4ccc(CNC(=O)c5cc(C(C)(C)C)on5)c(Cl)c4)n3)cn2)C1 [Example I-354, 5-tert-butyl-N-[[2-chloro-4-[2-[[1-(1-methylazetidin-3-yl)pyrazol-4-yl]amino]pyrimidin-4-yl]phenyl]methyl]isoxazole-3-carboxamide]
500 to 1500 | < 10 | Cc1cc(-c2ccnc(Nc3cn[nH]c3)n2)ccc1CNC(=O)N1CC(OC(C)C)C1 [Example I-222, N-(4-(2-((1H-pyrazol-4-yl)amino)pyrimidin-4-yl)-2-methylbenzyl)-3-isopropoxyazetidine-1-carboxamide]
< 500 | < 10 | Cc1cc(-c2cc(Nc3cc4n(n3)CCCN(C)C4)ncn2)ccc1CNC(=O)c1cnn(C(C)(C)C)c1 [Example I-236, 1-(tert-butyl)-N-(2-methyl-4-(6-((5-methyl-5,6,7,8-tetrahydro-4H-pyrazolo[1,5-a][1,4]diazepin-2-yl)amino)pyrimidin-4-yl)benzyl)-1H-pyrazole-4-carboxamide]
< 500 | < 10 | CCN1CCn2nc(Nc3cc(-c4ccc(CNC(=O)c5cnn(C(C)(C)C)c5)c(C)c4)ncn3)cc2C1 [Example I-232, 1-(tert-butyl)-N-(4-(6-((5-ethyl-4,5,6,7-tetrahydropyrazolo[1,5-a]pyrazin-2-yl)amino)pyrimidin-4-yl)-2-methylbenzyl)-1H-pyrazole-4-carboxamide]
< 500 | < 10 | Cc1cc(-c2cc(Nc3cc4n(n3)CCN(CCO)C4)ncn2)ccc1CNC(=O)c1cnc(C(C)(C)C)s1 [Example I-271, 2-tert-butyl-N-[[4-[6-[[5-(2-hydroxyethyl)-6,7-dihydro-4H-pyrazolo[1,5-a]pyrazin-2-yl]amino]pyrimidin-4-yl]-2-methyl-phenyl]methyl]thiazole-5-carboxamide]
< 500 | < 10 | Cc1cc(-c2ccnc(Nc3cnn(C)c3)n2)ccc1CN1CCN(CC(C)C)CC1=O [Example I-249, 4-isobutyl-1-(2-methyl-4-(2-((1-methyl-1H-pyrazol-4-yl)amino)pyrimidin-4-yl)benzyl)piperazin-2-one]
< 500 | < 10 | CC(C)(C)C1CCN(C(=O)NC2CCCc3cc(-c4ccnc(Nc5cnn(CCO)c5)n4)ccc32)C1 (stereo not drawn) [Example I-327]
